Laboratory results reported in ChEMBL document CHEMBL4507285, “Data for DCP probe MRL-SYKi” (2021).
Calls of active or inactive are those of the source. No cut-off for these calls is given here.

Columns and labels:
[1] = molecular target: Tyrosine-protein kinase SYK (Homo sapiens, UniProt P43405); experiment: Human SKY enzyme assay
[2] = test system: Tyrosine-protein kinase ABL1 (Homo sapiens), P00519 [Y253F]; conditions: Compound concentration 100.0 nM
[3] = molecular target: RAC-gamma serine/threonine-protein kinase (Homo sapiens) (UniProt Q9Y243); conditions: Compound concentration 100.0 nM
[4] = molecular target: Tyrosine-protein kinase Blk (Homo sapiens) (UniProt P51451); conditions: Compound concentration 100.0 nM
[5] = molecular target: Bone morphogenetic protein receptor type-1A (Homo sapiens) (UniProt P36894); conditions: Compound concentration 100.0 nM
[6] = molecular target: Calcium/calmodulin-dependent protein kinase type 1B (Homo sapiens) (UniProt Q6P2M8); conditions: Compound concentration 100.0 nM
[7] = molecular target: Calcium/calmodulin-dependent protein kinase type II subunit delta (Homo sapiens) (UniProt Q13557); conditions: Compound concentration 100.0 nM
[8] = molecular target: Dual specificity protein kinase CLK3 (Homo sapiens) (UniProt P49761); conditions: Compound concentration 100.0 nM
[9] = molecular target: Casein kinase I isoform gamma-1 (Homo sapiens) (UniProt Q9HCP0); conditions: Compound concentration 100.0 nM
[10] = molecular target: Casein kinase II subunit alpha' (Homo sapiens) (UniProt P19784); conditions: Compound concentration 100.0 nM
[11] = molecular target: Serine/threonine-protein kinase DCLK2 (Homo sapiens) (UniProt Q8N568); conditions: Compound concentration 100.0 nM
[12] = molecular target: Serine/threonine-protein kinase 17A (Homo sapiens) (UniProt Q9UEE5); conditions: Compound concentration 100.0 nM
[13] = molecular target: Ephrin type-B receptor 1 (Homo sapiens) (UniProt P54762); conditions: Compound concentration 100.0 nM
[14] = molecular target: Mitogen-activated protein kinase 15 (Homo sapiens) (UniProt Q8TD08); conditions: Compound concentration 100.0 nM
[15] = molecular target: Tyrosine-protein kinase Fes/Fps (Homo sapiens) (UniProt P07332); conditions: Compound concentration 100.0 nM
[16] = molecular target: Fibroblast growth factor receptor 3 (Homo sapiens) (UniProt P22607); conditions: Compound concentration 100.0 nM
[17] = molecular target: Tyrosine-protein kinase Fgr (Homo sapiens, UniProt P09769); conditions: Compound concentration 100.0 nM
[18] = molecular target: Receptor-type tyrosine-protein kinase FLT3 (Homo sapiens) (UniProt P36888); conditions: Compound concentration 100.0 nM
[19] = molecular target: Cyclin-G-associated kinase (Homo sapiens) (UniProt O14976); conditions: Compound concentration 100.0 nM
[20] = test system: Mast/stem cell growth factor receptor Kit (Homo sapiens), P10721 [A829P]; conditions: Compound concentration 100.0 nM
[21] = test system: Mast/stem cell growth factor receptor Kit (Homo sapiens), P10721 [V559D]; conditions: Compound concentration 100.0 nM
[22] = molecular target: Serine/threonine-protein kinase LATS2 (Homo sapiens) (UniProt Q9NRM7); conditions: Compound concentration 100.0 nM
[23] = molecular target: Mitogen-activated protein kinase kinase kinase 11 (Homo sapiens) (UniProt Q16584); conditions: Compound concentration 100.0 nM
[24] = molecular target: Serine/threonine-protein kinase 3 (Homo sapiens) (UniProt Q13188); conditions: Compound concentration 100.0 nM
[25] = molecular target: Myosin light chain kinase, smooth muscle (Homo sapiens) (UniProt Q15746); conditions: Compound concentration 100.0 nM
[26] = molecular target: Mitogen-activated protein kinase 12 (Homo sapiens) (UniProt P53778); conditions: Compound concentration 100.0 nM
[27] = molecular target: Cyclin-dependent kinase 17 (Homo sapiens) (UniProt Q00537); conditions: Compound concentration 100.0 nM
[28] = molecular target: 3-phosphoinositide-dependent protein kinase 1 (Homo sapiens) (UniProt O15530); conditions: Compound concentration 100.0 nM
[29] = molecular target: Phosphatidylinositol 4,5-bisphosphate 3-kinase catalytic subunit alpha isoform (Homo sapiens) (UniProt P42336); conditions: Compound concentration 100.0 nM
[30] = molecular target: Phosphatidylinositol 5-phosphate 4-kinase type-2 beta (Homo sapiens) (UniProt P78356); conditions: Compound concentration 100.0 nM
[31] = molecular target: Interferon-induced, double-stranded RNA-activated protein kinase (Homo sapiens) (UniProt P19525); conditions: Compound concentration 100.0 nM
[32] = molecular target: Rho-associated protein kinase 1 (Homo sapiens) (UniProt Q13464); conditions: Compound concentration 100.0 nM
[33] = molecular target: Tyrosine-protein kinase receptor Tie-1 (Homo sapiens) (UniProt P35590); conditions: Compound concentration 100.0 nM
[34] = molecular target: High affinity nerve growth factor receptor (Homo sapiens, UniProt P04629); conditions: Compound concentration 100.0 nM
[35] = molecular target: BDNF/NT-3 growth factors receptor (Homo sapiens) (UniProt Q16620); conditions: Compound concentration 100.0 nM
[36] = molecular target: Testis-specific serine/threonine-protein kinase 1 (Homo sapiens) (UniProt Q9BXA7); conditions: Compound concentration 100.0 nM
[37] = molecular target: Dual specificity protein kinase TTK (Homo sapiens) (UniProt P33981); conditions: Compound concentration 100.0 nM
[38] = molecular target: Vascular endothelial growth factor receptor 2 (Homo sapiens) (UniProt P35968); conditions: Compound concentration 100.0 nM
[39] = molecular target: Serine/threonine-protein kinase VRK2 (Homo sapiens) (UniProt Q86Y07); conditions: Compound concentration 100.0 nM
[40] = molecular target: Serine/threonine-protein kinase WNK3 (Homo sapiens) (UniProt Q9BYP7); conditions: Compound concentration 100.0 nM
[41] = molecular target: Mitogen-activated protein kinase kinase kinase 19 (Homo sapiens) (UniProt Q56UN5); conditions: Compound concentration 100.0 nM
[42] = molecular target: D(1A) dopamine receptor (Homo sapiens) (UniProt P21728); conditions: Compound concentration 10.0 uM
[43] = molecular target: Mu-type opioid receptor (Homo sapiens) (UniProt P35372); conditions: Compound concentration 10.0 uM
[44] = molecular target: Histamine H1 receptor (Homo sapiens) (UniProt P35367); conditions: Compound concentration 10.0 uM
[45] = molecular target: Histamine H3 receptor (Homo sapiens) (UniProt Q9Y5N1); conditions: Compound concentration 10.0 uM

Sequence of Calcium/calmodulin-dependent protein kinase type 1B (Homo sapiens) (Q6P2M8 whole entry): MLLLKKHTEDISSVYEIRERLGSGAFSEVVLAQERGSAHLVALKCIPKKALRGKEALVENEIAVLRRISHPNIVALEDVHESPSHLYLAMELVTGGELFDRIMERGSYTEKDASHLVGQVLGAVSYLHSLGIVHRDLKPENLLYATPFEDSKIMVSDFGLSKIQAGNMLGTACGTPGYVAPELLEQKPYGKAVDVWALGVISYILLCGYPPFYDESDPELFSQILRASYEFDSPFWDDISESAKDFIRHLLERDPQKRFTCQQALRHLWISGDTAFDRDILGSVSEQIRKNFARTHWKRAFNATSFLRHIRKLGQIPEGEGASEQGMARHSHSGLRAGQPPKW
Sequence of Tyrosine-protein kinase Fes/Fps (Homo sapiens) (P07332 whole entry): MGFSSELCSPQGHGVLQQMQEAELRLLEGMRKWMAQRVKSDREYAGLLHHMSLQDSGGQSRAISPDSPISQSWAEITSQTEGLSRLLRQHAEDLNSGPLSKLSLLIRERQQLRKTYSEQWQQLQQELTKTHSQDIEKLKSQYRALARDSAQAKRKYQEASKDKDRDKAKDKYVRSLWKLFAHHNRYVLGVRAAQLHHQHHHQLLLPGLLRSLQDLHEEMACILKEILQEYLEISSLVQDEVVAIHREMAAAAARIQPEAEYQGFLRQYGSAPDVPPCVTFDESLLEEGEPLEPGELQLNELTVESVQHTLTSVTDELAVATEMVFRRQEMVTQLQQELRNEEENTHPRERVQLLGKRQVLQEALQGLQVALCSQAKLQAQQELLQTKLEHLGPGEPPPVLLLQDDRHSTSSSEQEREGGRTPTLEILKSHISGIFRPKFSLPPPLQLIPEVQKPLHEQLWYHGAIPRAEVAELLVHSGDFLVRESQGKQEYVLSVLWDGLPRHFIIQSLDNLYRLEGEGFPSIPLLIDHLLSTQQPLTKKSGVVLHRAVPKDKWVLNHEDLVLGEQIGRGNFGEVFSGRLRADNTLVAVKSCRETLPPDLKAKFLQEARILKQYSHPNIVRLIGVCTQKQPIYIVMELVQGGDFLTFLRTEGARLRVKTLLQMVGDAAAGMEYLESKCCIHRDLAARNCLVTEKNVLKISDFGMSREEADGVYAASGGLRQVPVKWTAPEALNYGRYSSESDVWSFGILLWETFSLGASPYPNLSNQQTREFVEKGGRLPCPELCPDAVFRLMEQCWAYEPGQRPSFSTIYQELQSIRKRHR
Sequence of Serine/threonine-protein kinase LATS2 (Homo sapiens) (Q9NRM7 whole entry): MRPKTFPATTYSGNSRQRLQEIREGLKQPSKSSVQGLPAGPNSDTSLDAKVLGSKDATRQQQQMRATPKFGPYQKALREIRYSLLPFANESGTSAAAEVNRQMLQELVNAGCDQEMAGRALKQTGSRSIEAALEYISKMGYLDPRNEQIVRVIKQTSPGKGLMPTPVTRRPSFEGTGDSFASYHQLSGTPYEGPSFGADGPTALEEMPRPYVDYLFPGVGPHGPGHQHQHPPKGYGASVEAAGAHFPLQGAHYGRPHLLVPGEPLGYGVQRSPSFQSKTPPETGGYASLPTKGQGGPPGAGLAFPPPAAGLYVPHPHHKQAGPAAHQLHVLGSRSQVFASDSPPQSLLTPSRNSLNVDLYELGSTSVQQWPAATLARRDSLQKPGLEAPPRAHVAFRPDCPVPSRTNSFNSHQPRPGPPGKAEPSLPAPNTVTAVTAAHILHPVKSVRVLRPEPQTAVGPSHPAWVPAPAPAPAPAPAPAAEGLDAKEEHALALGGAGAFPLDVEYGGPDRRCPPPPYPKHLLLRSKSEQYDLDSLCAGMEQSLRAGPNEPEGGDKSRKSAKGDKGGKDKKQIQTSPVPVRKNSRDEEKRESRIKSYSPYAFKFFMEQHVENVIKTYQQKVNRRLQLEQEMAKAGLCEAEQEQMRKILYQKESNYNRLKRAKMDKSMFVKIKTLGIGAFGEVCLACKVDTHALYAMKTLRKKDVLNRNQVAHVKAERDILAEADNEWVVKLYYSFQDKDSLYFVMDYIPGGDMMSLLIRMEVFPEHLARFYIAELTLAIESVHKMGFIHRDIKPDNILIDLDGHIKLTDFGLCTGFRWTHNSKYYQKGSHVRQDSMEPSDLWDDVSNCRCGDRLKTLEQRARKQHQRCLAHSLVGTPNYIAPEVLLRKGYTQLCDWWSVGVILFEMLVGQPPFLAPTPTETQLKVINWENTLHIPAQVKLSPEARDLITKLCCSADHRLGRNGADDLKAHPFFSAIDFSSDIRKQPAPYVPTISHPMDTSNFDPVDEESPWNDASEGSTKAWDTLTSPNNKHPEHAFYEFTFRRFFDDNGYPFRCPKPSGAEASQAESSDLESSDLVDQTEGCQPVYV
Sequence of Bone morphogenetic protein receptor type-1A (Homo sapiens) (P36894 whole entry): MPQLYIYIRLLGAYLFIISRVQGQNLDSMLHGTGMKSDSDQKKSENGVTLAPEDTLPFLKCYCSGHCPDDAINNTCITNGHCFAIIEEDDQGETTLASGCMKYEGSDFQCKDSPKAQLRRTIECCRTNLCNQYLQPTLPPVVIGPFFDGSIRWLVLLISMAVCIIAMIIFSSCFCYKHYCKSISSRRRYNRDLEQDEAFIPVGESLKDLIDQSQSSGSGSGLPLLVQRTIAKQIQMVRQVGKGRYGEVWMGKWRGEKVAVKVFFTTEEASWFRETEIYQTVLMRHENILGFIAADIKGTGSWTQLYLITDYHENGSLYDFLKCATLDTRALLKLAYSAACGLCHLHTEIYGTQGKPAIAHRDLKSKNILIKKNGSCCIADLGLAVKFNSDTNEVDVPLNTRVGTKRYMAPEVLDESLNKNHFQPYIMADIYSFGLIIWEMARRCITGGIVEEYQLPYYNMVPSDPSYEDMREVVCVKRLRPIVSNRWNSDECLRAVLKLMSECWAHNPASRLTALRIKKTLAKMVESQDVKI
Sequence of Cyclin-G-associated kinase (Homo sapiens) (O14976 whole entry): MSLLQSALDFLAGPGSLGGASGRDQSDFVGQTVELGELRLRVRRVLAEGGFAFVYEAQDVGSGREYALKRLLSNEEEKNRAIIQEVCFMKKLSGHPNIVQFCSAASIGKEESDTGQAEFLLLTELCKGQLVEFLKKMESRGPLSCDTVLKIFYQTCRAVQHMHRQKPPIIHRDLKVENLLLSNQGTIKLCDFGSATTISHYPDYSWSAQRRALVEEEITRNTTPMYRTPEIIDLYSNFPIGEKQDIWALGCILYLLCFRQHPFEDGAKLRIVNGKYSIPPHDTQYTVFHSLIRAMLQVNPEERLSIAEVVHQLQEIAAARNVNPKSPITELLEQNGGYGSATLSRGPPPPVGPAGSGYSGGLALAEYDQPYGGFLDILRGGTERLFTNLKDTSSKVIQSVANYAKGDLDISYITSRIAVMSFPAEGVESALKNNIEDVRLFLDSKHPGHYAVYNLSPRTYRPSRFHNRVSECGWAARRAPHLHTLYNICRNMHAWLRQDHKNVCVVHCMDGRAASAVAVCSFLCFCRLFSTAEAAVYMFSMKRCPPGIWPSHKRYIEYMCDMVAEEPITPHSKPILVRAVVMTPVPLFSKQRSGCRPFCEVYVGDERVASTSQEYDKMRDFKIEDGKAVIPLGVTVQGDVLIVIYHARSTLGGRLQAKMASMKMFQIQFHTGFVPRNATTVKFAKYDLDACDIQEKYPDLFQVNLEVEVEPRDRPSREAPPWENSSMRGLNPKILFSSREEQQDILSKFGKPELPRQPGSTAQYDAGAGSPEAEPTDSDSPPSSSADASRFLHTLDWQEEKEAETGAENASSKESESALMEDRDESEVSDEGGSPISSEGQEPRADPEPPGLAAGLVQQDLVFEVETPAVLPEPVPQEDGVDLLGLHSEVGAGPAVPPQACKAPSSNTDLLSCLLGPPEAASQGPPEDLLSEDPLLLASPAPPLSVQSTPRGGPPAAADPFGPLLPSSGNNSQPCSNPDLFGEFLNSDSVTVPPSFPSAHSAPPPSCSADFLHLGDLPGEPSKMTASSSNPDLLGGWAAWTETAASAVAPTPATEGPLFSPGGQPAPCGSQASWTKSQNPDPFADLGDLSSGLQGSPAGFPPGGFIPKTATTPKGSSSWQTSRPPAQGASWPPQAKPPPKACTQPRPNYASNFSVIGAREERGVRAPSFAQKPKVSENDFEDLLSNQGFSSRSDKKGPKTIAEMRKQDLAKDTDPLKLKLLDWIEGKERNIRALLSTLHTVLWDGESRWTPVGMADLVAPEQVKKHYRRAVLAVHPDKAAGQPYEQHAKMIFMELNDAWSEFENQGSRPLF
Sequence of Interferon-induced, double-stranded RNA-activated protein kinase (Homo sapiens) (P19525 whole entry): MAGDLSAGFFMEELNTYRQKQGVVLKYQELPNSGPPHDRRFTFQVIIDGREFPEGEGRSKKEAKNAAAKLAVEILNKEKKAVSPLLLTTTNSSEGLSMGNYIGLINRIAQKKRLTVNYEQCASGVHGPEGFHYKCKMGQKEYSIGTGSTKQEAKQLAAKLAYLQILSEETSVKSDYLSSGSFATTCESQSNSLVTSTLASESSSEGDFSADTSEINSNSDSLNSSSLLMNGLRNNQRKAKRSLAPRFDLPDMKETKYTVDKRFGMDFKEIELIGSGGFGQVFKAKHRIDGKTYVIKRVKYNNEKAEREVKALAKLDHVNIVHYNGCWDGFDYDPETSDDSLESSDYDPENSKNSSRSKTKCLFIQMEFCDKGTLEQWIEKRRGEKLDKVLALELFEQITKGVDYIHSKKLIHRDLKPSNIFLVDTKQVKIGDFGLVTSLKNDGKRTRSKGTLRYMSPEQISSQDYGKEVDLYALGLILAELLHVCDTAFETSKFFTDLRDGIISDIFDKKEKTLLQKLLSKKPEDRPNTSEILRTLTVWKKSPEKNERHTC
Sequence of Mu-type opioid receptor (Homo sapiens) (P35372 whole entry): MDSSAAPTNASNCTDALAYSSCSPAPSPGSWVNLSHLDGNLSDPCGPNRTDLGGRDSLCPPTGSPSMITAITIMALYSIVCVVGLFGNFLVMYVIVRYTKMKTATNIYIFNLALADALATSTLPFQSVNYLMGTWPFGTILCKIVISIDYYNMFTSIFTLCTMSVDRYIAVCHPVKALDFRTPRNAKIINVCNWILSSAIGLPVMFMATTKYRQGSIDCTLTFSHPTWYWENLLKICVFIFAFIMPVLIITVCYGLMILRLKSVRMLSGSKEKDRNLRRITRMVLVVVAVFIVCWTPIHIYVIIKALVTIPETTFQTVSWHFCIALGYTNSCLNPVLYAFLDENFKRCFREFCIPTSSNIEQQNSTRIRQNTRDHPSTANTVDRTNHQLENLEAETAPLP

For `Cc1ccc(-c2cnc([C@@]3(O)CC[C@H](C(=O)O)C(C)(C)C3)s2)cc1Nc1cccc(C(F)(F)F)n1` [MRL-SYKi-NC], the IC50 [1] was 4.7 µM (not active), the residual activity [2] was 81.9% and the residual activity [3] was 82.8%. For the same molecule, the residual activity [4] was 100%, the residual activity [5] was 100% and the residual activity [6] was 95.9%. It also gave a residual activity [7] of 87.2%, a residual activity [8] of 76% and a residual activity [9] of 91.8%. It also gave a residual activity [10] of 59.8%, a residual activity [11] of 100% and a residual activity [12] of 96.7%. It also gave a residual activity [13] of 98.7%, a residual activity [14] of 80.3% and a residual activity [15] of 100%. It also gave a residual activity [16] of 100%, a residual activity [17] of 100% and a residual activity [18] of 100%. It also gave a residual activity [19] of 100%, a residual activity [20] of 61.5% and a residual activity [21] of 90%. The residual activity [22] was 90.6%, the residual activity [23] was 100% and the residual activity [24] was 98.1%. The residual activity [25] was 86.6%, the residual activity [26] was 98.8% and the residual activity [27] was 100%. For the same molecule, the residual activity [28] was 95.5%, the residual activity [29] was 86.9% and the residual activity [30] was 61.3%. It also gave a residual activity [31] of 75.8%, a residual activity [32] of 100% and a residual activity [33] of 86.8%. The residual activity [34] was 64.5%, the residual activity [35] was 67.2% and the residual activity [36] was 100%. It also gave a residual activity [37] of 78.8%, a residual activity [38] of 100% and a residual activity [39] of 100%. It also gave a residual activity [40] of 0%, a residual activity [41] of 100% and an inhibition [42] of 6.26%. The inhibition [43] was 8.33%, the inhibition [44] was 9.09% and the inhibition [45] was 46.4%.

For `Cc1cc(Nc2nccc(C)n2)cc(-c2cnc([C@@]3(O)CC[C@H](C(=O)O)C(C)(C)C3)s2)c1` [MRL-SYKi], the IC50 [1] was 0.0009 µM (active), the residual activity [2] was 100% and the residual activity [3] was 100%. It also gave a residual activity [4] of 74.6%, a residual activity [5] of 90.5% and a residual activity [6] of 78.1%. It also gave a residual activity [7] of 84.6%, a residual activity [8] of 100% and a residual activity [9] of 100%. It also gave a residual activity [10] of 100%, a residual activity [11] of 90.1% and a residual activity [12] of 99.6%. The residual activity [13] was 100%, the residual activity [14] was 100% and the residual activity [15] was 100%. For the same molecule, the residual activity [16] was 88.2%, the residual activity [17] was 100% and the residual activity [18] was 94.2%. For the same molecule, the residual activity [19] was 100%, the residual activity [20] was 100% and the residual activity [21] was 100%. The residual activity [22] was 100%, the residual activity [23] was 92.6% and the residual activity [24] was 100%. For the same molecule, the residual activity [25] was 92.9%, the residual activity [26] was 31.2% and the residual activity [27] was 73.2%. For the same molecule, the residual activity [28] was 86.5%, the residual activity [29] was 100% and the residual activity [30] was 79.6%. It also gave a residual activity [31] of 77.4%, a residual activity [32] of 70.7% and a residual activity [33] of 68.1%. The residual activity [34] was 30.2%, the residual activity [35] was 60.3% and the residual activity [36] was 100%. For the same molecule, the residual activity [37] was 74.8%, the residual activity [38] was 100% and the residual activity [39] was 100%. It also gave a residual activity [40] of 100%, a residual activity [41] of 100% and an inhibition [42] of -7.4%. For the same molecule, the inhibition [43] was 17.3%, the inhibition [44] was 7.85% and the inhibition [45] was 50.4%.
